Values quoted from earlier work, collected in US6486182B1, “Mutual prodrugs of amlodipine and atorvastatin” (Pfizer Inc, priority 1999, dated 2002).

How the values were obtained:
calcium channel = conditions: see PCT/EP94/02697
[1] = test system: smooth muscle cell migration; conditions: see PCT/EP95/00847

## CCOC(=O)C1=C(COCCN)NC(C)=C(C(=O)OC)C1c1ccccc1Cl (single isomer, unassigned) [R(+) isomer, Amlodipine]
Calcium channel
  calcium channel blocking activity: little or no calcium channel blocking activity
[1]
  inhibition of smooth muscle cell migration: potent inhibitor
